The test system of the assay is 67LR. The assay is described as follows: 67LR level in membrane and cytoplasm of A549 cells (Western blotting, flow cytometry). It is filed as cell-based. The following applies: membrane fraction, FIG. 13. As for the experimental part: In FIG. 13, A549 cells were transfected with si-control or si-KRS and incubated in the absence and presence of laminin. The cells were then separated to cytoplasm and membrane fractions, and the levels of 67LR and KRS in each fraction were determined by Western blotting. Cadherin (cad) and hsp90 were used as the markers for plasma membrane and cytoplasm, respectively. In FIG. 14, the membrane-bound 67LR level in A549 cells was monitored by flow cytometry using anti-LR antibody (MLuC5). The cells were transfected with empty vector or KRS plasmid and incubated for 24 h (upper). […] In FIG. 15, A549 cells transfected with EV or KRS was selected with G418 for a week and cellular distribution of 67LR was determined by immunofluorescence staining with anti-LR antibody (MLuC5). […] In FIG. 16, A549 cells were treated with cycloheximide to inhibit de novo protein synthesis and the effect of KRS levels on 67LR level in membrane and cytoplasm was determined by Western blotting. In FIG. 17, the importance of KRS for cellular stability of 67LR was determined by pulse-chase experiment. […]
To address cell cycle, the cultivated cells were transfected or treated with the indicated vector or chemicals, fixed with 70% ethanol for 1 hr at 4° C. and washed with ice-cold PBS two times. […] For each sample, 20,000 cells were analyzed using Cell Quest Pro software. […]
For orientation: A western blot detects proteins with antibodies after separation by electrophoresis.

Take “laminin: laminin (Engelbreth-Holm-Swarm murine sarcoma) from Sigma”: the 67LR level entry is listed as “increased”.
